{
  "source": "EPA's ToxValDB 9.5 (doi:10.2903/j.efsa.2010.1406)",
  "key": {"[1]": {"tested_on": "Rattus norvegicus"}, "[2]": {"conditions": "subchronic; duration: 90 days"}, "[3]": {"conditions": "subchronic, duration: 90 days, oral, diet"}},
  "data": [
    {"smiles": "Cc1occc1SSc1ccoc1C", "note": "[Bis(2-methyl-3-furyl)disulfide]", "values": [
      {"measurement": "NOEL", "setting": "[1]; [3]", "value": 0.45, "unit": "mg/kg-day"}
    ]},
    {"smiles": "Cc1occc1SSSSc1ccoc1C", "note": "[Bis(2-methyl-3-furyl) tetrasulfide]", "values": [
      {"measurement": "NOEL", "setting": "[1]; subchronic, duration: 90 days", "value": 0.56, "unit": "mg/kg-day"}
    ]},
    {"smiles": "CCOC(=O)CCSCc1ccco1", "note": "[Ethyl 3-(furfurylthio)propionate]", "values": [
      {"measurement": "NOEL", "setting": "[1]; subchronic, duration: 90 days", "value": 17, "unit": "mg/kg-day"}
    ]},
    {"smiles": "Cc1cc(SSc2cc(C)oc2C)c(C)o1", "note": "[Furan, 3,3'-dithiobis[2,5-dimethyl-]", "values": [
      {"measurement": "NOEL", "setting": "[1]; [3]", "value": 0.45, "unit": "mg/kg-day"}
    ]},
    {"smiles": "CSC(=O)c1ccco1", "note": "[2-Furancarbothioic acid, S-methyl ester]", "values": [
      {"measurement": "NOAEL", "setting": "[2]", "value": 6.7, "unit": "mg/kg-day"}
    ]},
    {"smiles": "CCSC(C)=O", "note": "[S-Ethyl thiolacetate]", "values": [
      {"measurement": "NOAEL", "setting": "[2]", "value": 6.7, "unit": "mg/kg-day"}
    ]},
    {"smiles": "CC(=O)CC(C)SCc1ccco1", "note": "(centres undefined) [4-{[(Furan-2-yl)methyl]sulfanyl}pentan-2-one]", "values": [
      {"measurement": "NOAEL", "setting": "[1]; [3]", "value": 3.76, "unit": "mg/kg-day"}
    ]},
    {"smiles": "Cc1cc(SC(=O)CC(C)C)c(C)o1", "note": "[2,5-Dimethyl-3-thioisovalerylfuran]", "values": [
      {"measurement": "NOEL", "setting": "[1]; subchronic, duration: 90 days", "value": 0.73, "unit": "mg/kg-day"}
    ]},
    {"smiles": "CC(=O)SC1=C(C)OCC1", "note": "[2-Methyl-3-thioacetoxy-4,5-dihydrofuran]", "values": [
      {"measurement": "NOEL", "setting": "[1]; chronic, duration: 1 years, oral, diet", "value": 8.3, "unit": "mg/kg-day"}
    ]}
  ]
}
